The record followed here is patent US10927117B2 (BEIGENE SWITZERLAND GMBH, priority 2016, dated 2021).

Series [1] deals with rituximab-induced antigen-dependent cell-mediated cytotoxicity (ADCC). Nature of the series: Rituximab-induced ADCC inhibition. It counts as cell-based.
The test system of series [2] is Waldenstrom's Macroglobulinemia (WM). Kind of series: Phase 1 trial in patients with Waldenstrom's Macroglobulinemia (WM). It counts as in vivo, human. Here is the method: The dose-escalation component of the trail tested total daily doses ranging from 40 mg to 320 mg, and the ongoing dose-expansion phase is testing doses of 160 mg twice a day (BID) or 320 mg once a day (QD). As of Mar. 31, 2017, 48 patients with WM were enrolled in the study. Responses were determined according to the modified Sixth International Workshop on WM (IWWM) criteria.

Series [3] is described as follows: Physical and long term stability test. It counts as physicochemical.
For series [4], the target named is T1, TEC (Homo sapiens, UniProt P42680).
T1 sequence (P42680 1-631): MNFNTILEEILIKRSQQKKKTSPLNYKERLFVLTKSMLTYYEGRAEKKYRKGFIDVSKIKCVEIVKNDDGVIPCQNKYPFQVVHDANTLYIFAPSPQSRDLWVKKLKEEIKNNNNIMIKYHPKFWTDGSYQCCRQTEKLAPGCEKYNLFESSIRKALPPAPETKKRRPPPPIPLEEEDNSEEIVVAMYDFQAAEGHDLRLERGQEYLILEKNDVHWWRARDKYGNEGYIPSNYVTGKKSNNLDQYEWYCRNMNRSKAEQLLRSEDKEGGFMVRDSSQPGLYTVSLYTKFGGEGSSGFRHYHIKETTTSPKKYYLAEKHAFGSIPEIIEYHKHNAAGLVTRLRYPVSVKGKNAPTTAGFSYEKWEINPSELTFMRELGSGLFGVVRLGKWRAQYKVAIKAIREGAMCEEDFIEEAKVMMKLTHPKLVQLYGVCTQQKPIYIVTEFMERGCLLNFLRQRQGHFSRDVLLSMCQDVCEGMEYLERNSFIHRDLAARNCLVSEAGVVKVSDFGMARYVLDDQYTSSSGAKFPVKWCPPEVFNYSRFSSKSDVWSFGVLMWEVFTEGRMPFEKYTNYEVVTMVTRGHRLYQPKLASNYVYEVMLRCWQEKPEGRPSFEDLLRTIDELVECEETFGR
Kind of series: IC50 determination of TEC (TR-FRET). Type of series: biochemical. The following applies: at KM of ATP, 1-hour pre-incubation. For orientation: TR-FRET usually uses a lanthanide donor and a delayed reading to cut background.

Series [5] in a line: Pharmacokinetics in dogs (LC-MS/MS). It counts as in vivo, beagle dogs.
Series [6] can be described thus: Pharmacokinetics study in mouse. Type of series: in vivo. The following applies: ICR mice, oral gavage. How it is done:
For time course study, mice were randomly assigned into 7 groups with 4 mice per group. […] For dose dependency study, mice were randomly assigned into 9 groups with 4 mice per group. […] Treatments were administered by oral gavage (p.o.) in a volume of 10 ml/kg body weight. Body weight was assessed immediately before dosing and volume dosed was adjusted accordingly.
PK SAMPLE PREPARATION: For time course study, blood samples (50 μL per mouse) were collected from the retro-orbital sinus under isoflurane/oxygen anesthesia at 15 min after dosing (this group of mice were also used for 24 hr time point) or heart puncture after euthanization for the other time points. For dose dependency study, blood samples were collected from the retro-orbital sinus under isoflurane/oxygen anesthesia at 30 minutes after dosing. Plasma was collected by centrifugation at 3,000 g for 10 minutes and was kept frozen in −80° C. until analysis.
PK Analysis: maximum plasma concentration (Cmax) and time to reach Cmax (Tmax) were taken directly from the plasma concentration versus time profiles.

Series [7] concerns JEKO-1 cells (MCL cell line). Kind of series: Tumor cell proliferation, CellTiter-Glo, JEKO-1. Type of series: cell-based. The conditions noted are these: Homo sapiens, 144 h, JEKO-1 cell line, 6-day exposure, read-out: Potency IC50. How it is done: (§1) 3 MCL cell lines (Rec-1, Mino and JEKO-1) and an ABC type diffuse large B-cell lymphoma cell line (TMD8) were used in this study. Cell lines were maintained in RPMI-1640 supplemented with 10% fetal bovine serum/FBS (Thermo Scientific); 100 units/ml penicillin (Gibco) and 0.1 mg/ml streptomycin (Gibco) and kept at 37° C. in a humidified atmosphere of 5% CO2 in air. Cell lines were reinstated from frozen stocks that were laid down within 30 passages from the original cells purchased.
(§2) The growth-inhibitory activity of compounds in Rec-1, Mino, JEKO-1 and TMD-8 cells was determined using CellTiter-Glo luminescent cell viability assay (Promega). The number of cells seeded per well of a 96-well plate was optimized for each cell line to ensure logarithmic growth over 6 days treatment period. Cells were treated in triplicate with a 10-point dilution series. […] Mixture was mixed on an orbital shaker for 2 minutes to allow cell lysis, followed by 10 minutes incubation at room temperature to allow development and stabilization of luminescent signal, which corresponded to quantity of ATP and thus the quantity of metabolically active cells. Luminescent signal was measured using PHERAstar FS reader (BMG Labtech). IC50 values for cell viability were determined with GraphPad Prism software and were the mean of 3 independent assays.
For orientation: In ATP-based viability assays light output follows the ATP content of the culture.

Series [8] can be described thus: Pharmacokinetics in rats (LC-MS/MS). It counts as in vivo, Sprague-Dawley rats.
Series [9] has as its system Mino cells (MCL cell line). Kind of series: Tumor cell proliferation, CellTiter-Glo, Mino. Type of series: cell-based. The following applies: Homo sapiens, 144 h, 6-day exposure, mean of 3 independent assays, read-out: Potency IC50. Here is the method:
as §1, §2

Where [10] appears, read: 25° C./60% RH for up to 24 months.
[11] abbreviates: 40° C./75% RH for up to 6 months.

Entries after “also recorded” stand apart in the source; their conditions may differ.

Take `C=CC(=O)N1CCC([C@@H]2CCNc3c(C(N)=O)c(-c4ccc(Oc5ccccc5)cc4)nn32)CC1` [Compound 1, (S)-7-(1-acryloylpiperidin-4-yl)-2-(4-phenoxyphenyl)-4,5,6,7-tetra-hydropyrazolo[1,5-a]pyrimidine-3-carboxamide]: the “inhibition of rituximab-induced ADCC compared with ibrutinib” value in series [1] is listed as “significantly less inhibition”. Further, in series [2], the “discontinuation for Compound 1-related toxicity” value was “no discontinuation”, the “events leading to treatment discontinuation” value is reported as “Three events” and the “serious AEs assessed to be possibly related” value was “Five”. In [2] (42 evaluable patients), this compound returned a major response rate of 76% and a partial responses of 33%. For the same compound, in series [2] (42 evaluable patients, median follow-up 12.3 months), the “overall response rate (ORR)” value amounted to 90%. In series [2] (48 patients), this compound had an AE anemia of 15%, an AE constipation of 25%, an AE cough of 15% and an AE diarrhea of 19%. Besides, in series [2] (48 patients), the AE epistaxis was determined as 19%, the AE headache is on record as 15%, the AE nausea worked out at 17% and the AE neutropenia came to 13%. Besides, in [2] (48 patients), the AE rash turned out to be 13%, the “AE upper respiratory tract infection” value amounted to 31%, the “grade 3 or 4 anemia” value is on record as 8% and the “grade 3 or 4 diarrhea” value is reported as 2%. In addition, in series [2] (48 patients), the “grade 3 or 4 headache” value turned out to be 2% and the “grade 3 or 4 neutropenia” value is 8%. In [2] (48 patients, any attribution), this compound gave an AE petechiae/purpura/contusion of 35%. The “cases of atrial fibrillation” value in series [2] (all grade 1 or 2) is “three cases”. For the same compound, in series [2] (hemothorax), the serious hemorrhage entry is given as “one case”.
The term IC50 denotes the concentration that inhibits the measured activity by half. For the compound `C=CC(=O)N1CCC([C@@H]2CCNc3c(C(N)=O)c(-c4ccc(Oc5ccccc5)cc4)nn32)CC1` [Crystalline Form A, (S)-7-(1-acryloylpiperidin-4-yl)-2-(4-phenoxyphenyl)-4,5,6,7-tetra-hydropyrazolo[1,5-a]pyrimidine-3-carboxamide], in series [3] (setting [10]), the crystal form change result was “no crystal form and optical purity changes; also recorded: no crystal form change”; the optical purity change entry was “no crystal form and optical purity changes”. Also, the “chemical purity (% area) T0” value in series [3] (25° C./60% RH) is listed as 99.2%. Further, in [3] (25° C./60% RH, T12), the “chemical purity (% area) T12” value was found to be 99.2%. Moreover, in [3] (setting [11]), the crystal form change result is “no crystal form and optical purity changes; also recorded: no crystal form change”; the optical purity change result is “no crystal form and optical purity changes”. For the same compound, the “chemical purity (% area) T0” value in series [3] (40° C./75% RH) is 99.1%. Moreover, the “chemical purity (% area) T6” value in series [3] (40° C./75% RH, T6) was 99.4%. In addition, in series [3] (80° C. for two days), the “crystal form change (XRPD)” value is given as “no crystal form change”. This compound yielded an IC50 in [4] of 1.9 nM. Further, in series [5], the “accumulation following multiple oral dosing” value is recorded as “no accumulation”, the “bioavailability (F %)” value was “reasonably good bioavailability”, the “clearance (CL)” value is given as “moderate clearance” and the “linearity of PK over the dose range” value is recorded as “linear PK over the dose range”. Further, the absorption and elimination result in series [6] is “quickly absorbed and eliminated”. Moreover, the IC50 in [7] turned out to be 20 nM. Moreover, the “linearity of kinetics over the dose range” value in series [8] (female rats) is “linear”. The “accumulation following multiple oral dosing” value in series [8] (male and female rats) was “no statistically significant accumulation”. Further, in [8] (male rats), the linearity of kinetics entry was “not as good”. For the same compound, in series [8] (rats), the absorption result is listed as “quickly absorbed”, the oral bioavailability result is “good oral bioavailability” and the “plasma clearance (CL)” value was “high plasma clearance”. In addition, the IC50 in series [9] came out at 3.8 nM.
